Assay results from patent publication US20190388389A1, “METHODS AND COMPOSITIONS OF CARNOSOL FOR INHIBITING UVB-INDUCED SKIN DAMAGE” (Ohio University, priority 2017, published 2019).

What was measured:
NF-κB [1] = assay: Western blot for S276 phosphorylation of NF-κB, HaCaT cells; assay type: cell-based, Human; conditions: 20 μM carnosol, 6 h post UVB
Description: (§1) FIGS. 7A-7F: Carnosol inhibited UVB-induced NF-κB activation. Cells were exposed to UVB radiation in the presence or absence of carnosol. Cells were lysed at indicated time point and protein levels were measured by western blot analysis. (FIG. 7A) Western blot for IκB protein level in HaCaT cells at 2, 4 h post UVB radiation at 1, 10 or 20 μM carnosol treatment. (FIG. 7B) Western blot analysis for IκB protein level in HaCaT cells at 6 h post UVB radiation in the presence or absence of carnosol. (FIG. 7C) Western blot analysis for IκB protein level in MEF cells at 6 h post UVB radiation in the presence or absence of carnosol. (FIG. 7D) Western blot for 5276 site phosphorylation of NF-κB in HaCaT cells at 6 h post UVB with indicated carnosol concentration. (FIG. 7E) EMSA assay for HaCaT cells at 2, 4, 6 h post UVB radiation in the presence or absence of carnosol (20 μM). (FIG. 7F) Statistical analysis of the EMSA assay using two to three sets of independent experiments. *p<0.05 versus control group, **p<0.05 versus UV group at indicated time point.
Cells were lysed with Nonidet P-40 (NP-40) lysis buffer (2% NP-40, 80 mM NaCl, 100 mM Tris-HCl pH 8.0, 0.1% SDS) with proteinase inhibitor mixture (Complete™, Roche Molecular Biochemicals) at indicated time point. […] Protein concentration was measured by Protein DC Assay kit (Bio-Rad Laboratories). […]

NF-κB [2] = assay: Electrophoretic mobility shift assay (EMSA), HaCaT nuclear extract; assay type: cell-based, Human; conditions: 20 μM carnosol; for NF-κB activity induction (EMSA): UVB alone about 2.6 fold
Description: as §1
A 22-bp synthetic oligonucleotide (5′-[…]-3′) [SEQ ID NO:1] containing the specific NF-κB-binding site was annealed and labeled with γ-^32P-ATP using T4 polynucleotide kinase. A DNA-binding reaction mixture of total 20 μL containing poly(dI:dC), labeled probe, binding buffer (10 mM pH 8.0 Tris HCl, 150 mM KCl, 0.5 mM EDTA, 0.1% Triton-X 100, 12.5% Glycerol and 0.2 mM DTT) and 10 jag of cell nuclear extract was incubated at room temperature for 30 min and loaded onto a 5% nondenaturing polyacrylamide gel for electrophoresis. The gel was run in 0.5×TBE buffer at 120 V, transferred to a double layer of Whatman paper and dried on a gel dryer for 45-60 mM at 76° C. The dried gel was used to expose an autoradiography film (Denville) at −80° C. and the NF-κB bound ^32P-labeled DNA was detected, and the band intensity was analyzed by Image J.

HaCaT cells = assay: Cell survival analysis (Annexin V/PI flow cytometry), HaCaT; assay type: cell-based
Description: FIGS. 6A-6C: Carnosol protects UVB-induced cell death. Cells were exposed to UVB radiation with different dose of carnosol treatment. At indicated time point, cells were collected and Annexin V/PI apoptosis detection kit was used to detect cell apoptosis. (FIG. 6A) HaCaT cell survival rate with different concentrations (μM) of carnosol treatment at 12 h post UVB radiation. (FIG. 6B) Time dependent assay (h) in the presence or absence of carnosol treatment in HaCaT cells. (FIG. 6C) MEF cells treated with 20 μM carnosol at indicated time point (h). The error bars present the standard deviation of three sets of independent experiments. *p<0.05 versus control group; **p<0.05 versus corresponded UV group.
UVB was generated from a Bench XX-Series UV Lamp (UVP Inc.) equipped with two 15-watt UVB tubes (UVP Inc.). The intensity of UVB was calibrated by a UVP model UVX digital radiometer (UVP Inc.) after the lamps warmed up for 5 min. For irradiating cells, the dose rate for 8 mJ/cm^2 or 50 mJ/cm^2 of UVB radiation was 0.8 or 3.8 mW/s respectively. Medium was removed before exposing the cells to UVB. After UVB radiation, fresh medium was added to the culture plates with or without drugs, and the cells were continue incubating at 37° C. with 5% CO2 until further analysis. Carnosol was disovled in DMSO and was irradiated with 50 mJ/cm^2 of UVB radiation at a dose rate of 3.8 mW/s before subjecting to cells or structure analysis using Mass Spectrum.
Carnosol (Cayman) (FIG. 1) was added to cells at indicated concentration at 1 h before exposing the cells to UVB radiation. After radiation, cells were continuously incubated with or without carnosol in the medium until further analysis.
Total cell number of 1×10^5 was used for each analysis using flow cytometer. Fluorescein isothiocyanate (FITC) conjugated-annexin V (ANXS)/propidium iodide (PI) apoptosis detection kit (BD Biosciences) were used to stain the cells through the determination of the loss of membrane phospholipid […] and membrane integrity. Cell survival rate (R) was calculated as: R=[1×10^5−number of positive stained cells]/1×10^5. Briefly, the cells were harvested by 0.25% trypsin digestion, combined with the cells floating in the medium and washed twice with cold PBS. The cells were then suspended in ANXS binding buffer (10 mM Hepes/NaOH, pH 7.4, 140 mM NaCl and 2.5 mM CaCl2). The cell suspension was mixed with 5 μL ANXS-FITC and 5 μL PI. The cell mixture was incubated for […] in dark at room temperature and the ANXS/PI double-stained cells were analyzed using a FACSort Flow Cytometer (BD Science) equipped with CellQuest software (BD Science).

CC(C)c1cc2c(c(O)c1O)[C@@]13CCCC(C)(C)[C@@H]1C[C@@H]2OC3=O [carnosol]
phosphorylation of NF-κB at Serine 276 (S276) (NF-κB [1]): reduces the phosphorylation | NF-κB activity (DNA binding, EMSA) (NF-κB [2]; 2 h post UVB, UVB alone induced by 20%): no statistically significant change | NF-κB activity induction (EMSA) (NF-κB [2]; 4 h post UVB): 2.2 fold | NF-κB activity induction (EMSA) (NF-κB [2]; 6 h post UVB): 1.5 fold | cell survival with UVB radiation (HaCaT cells; 1 μM carnosol, 12 h post UVB): no statistically significant effect | cell survival with UVB radiation (HaCaT cells; 10 μM carnosol, 12 h post UVB): no statistically significant effect | toxicity to the cells without UVB radiation (HaCaT cells; 30 μM carnosol): limited toxicity | cell survival (HaCaT cells; carnosol alone 1-30 μM, no UVB, 12 h): no significant cell survival change | cell survival rate (HaCaT cells; dose assay, 20 μM carnosol, 12 h post UVB, UVB alone 20%): 30% | cell survival rate (HaCaT cells; dose assay, 30 μM carnosol, 12 h post UVB, vs 20 μM): no further increasing | cell survival rate (HaCaT cells; time assay, 20 μM carnosol, 6 h post UVB): no significance | cell survival rate (HaCaT cells; time assay, 20 μM carnosol, 12 h post UVB, UVB alone 30%): 40% | cell survival rate (HaCaT cells; time assay, 20 μM carnosol, 24 h post UVB, UVB alone 7%): 15%
